Values joined by “and” are separate entries in the source; they are usually repeats but may differ in a detail not shown here. Equal values may be shown once. Read-outs that look alike come from different tables or passages of the source.
What was measured:
[1] = Hepatic metabolic stability (hepatocyte clearance) assay, substrate depletion; format: in vitro ADME, human; settings: both sexes, human
From the text: (§1) William’s Medium E (Gibco A1217601), dexamethasone, and cell maintenance cocktail B (Gibco CM4000) were obtained from Thermo Fisher Scientific (Waltham, MA, USA). Hepatosure OptiThaw media (P/N K8000; Lot No. 18–1–0322) was obtained from Sekisui Xenotech (Kansas City, KS, USA). Trypan blue solution (P/N 1450021) was obtained from Bio-Rad (Hercules, CA, USA). Pooled human cryopreserved primary hepatocyte suspensions were obtained from BioIVT (Westbury, NY, USA) and produced using nontransplantable tissue. The human 50-donor pool (mixed gender; Cat X0080005; Lot MYC), selected from BioIVT’s commercially available, prepooled lots, was selected following review of vendor-generated metabolic characterization information. Pooled, mixed-sex human plasma from de-identified donors was obtained from a commercial vendor that operates a U.S. Food and Drug Administration-licensed and inspected donor center (BioIVT bioivt.com (accessed 12 May 2023). Donors comprised five males and five females and ranged from 20 to 50 years of age. Plasma collected using anticoagulant K2EDTA was sterile-filtered ([…]) and stored at <−70 °C until use.
(§2) The hepatic metabolic stability assay measures the loss of a parent compound over time in a substrate-depletion approach. Briefly, hepatocyte suspensions, after a viability assessment, were diluted in complete William’s medium E (containing dexamethasone and cell maintenance cocktail B) prior to addition to 96-well polypropylene plates containing an equal volume of media spiked with the test compound (1 μM assay concentration; assay cell density = 50,000 cells/100 μL) and maintained at 37 °C with shaking. At each time point, relevant plates were crashed with an equal volume of ice-cold acetonitrile, centrifuged, and supernatant transferred to a new plate prior to storage at <−70 °C until quantitative analysis. Controls, run in parallel, included cell-free (i.e., media only) and metabolically inactivated hepatocytes to evaluate abiotic chemical stability in the aqueous media matrix with and without cellular protein. In preliminary runs, these controls were run at T0 and T240 only. If significant instability was noted, the hepatocyte clearance assay was rerun, including cell-free samples at each time point and metabolically inactivated hepatocytes at selected time points.
(§3) To process samples for quantitative analysis, samples were thawed and mixed. An aliquot of sample was removed and diluted in acetonitrile (1 part sample plus 9 parts acetonitrile) containing the relevant ISs selected for the PFAS being analyzed (See Table S2). The target at instrument concentration of each IS was 10 pg/μL.
(§4) The curves were generated using concentration/response ratios from the target analyte and IS, with either linear or quadratic regression models. The model and weighting, if necessary, were chosen to most accurately reflect the response of each compound and was evaluated by recalculating the individual calibration points using the curve. An acceptable model reflected an accuracy of ±30% of the theoretical value.
(§5) Hepatic metabolic clearance data were plotted in semi-log format (ln concentration vs. time) with three replicates at each time point, as previously described. […] The equations described below are used to calculate the chemical half-life (T½) and intrinsic in vitro clearance (Clin vitro) with units of μL/(min × million hepatocytes). In Equation (3), 2000 is a scalar used to adjust the assay cell number up to be consistent with units of 1 million cells in the Clint equation.
(§6) Negative controls, including media only and metabolically inactivated hepatocyte controls, were included to monitor abiotic loss (i.e., background clearance) during the assay. Where significant compound loss occurred using the analysis described above, background clearance rates were calculated and used to background-adjust hepatic metabolic clearance rates. […]

[2] = tested on: pooled human cryopreserved primary hepatocyte suspensions; assay: as above; format: in vitro ADME
From the text: as §1, §2, §3, §4, §5, §6

[3] = Abiotic loss in negative controls of the hepatocyte clearance assay (cell-free media, metabolically inactivated hepatocytes); format: in vitro ADME
Method in brief: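 Test compound at 1 μM incubated at 37 °C with shaking in complete William's medium E, either cell-free or with metabolically inactivated hepatocytes, then quenched with ice-cold acetonitrile for quantitative analysis.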

[4] = In vitro-in vivo extrapolation (IVIVE) to Css and administered equivalent dose (AED); design: species or system human
Description: Using the experimentally generated PPB (fraction unbound in plasma, fup) and hepatic Clint data, IVIVE was performed as previously described to calculate human steady-state plasma concentrations (Css). Briefly, experimental measures of fup are adjusted using blood:plasma partitioning information to estimate the fraction unbound in blood (fub). Experimental hepatocyte Clint data are scaled up to represent whole-liver clearance (L/h). […] Once estimated, these Css values are considered in conjunction with published in vitro bioactivity concentrations (i.e., lowest-observed effective concentrations, or LOECs) to calculate AEDs (Table 2). See Table S10 for all relevant IVIVE inputs, scalars, calculations, and outputs.

human primary cells = settings: cited from earlier work
in vitro = settings: both, human, plasma
human plasma [5] = assay: Chemical stability in plasma over the UC assay time course (T5hr/T1hr)
human plasma [6] = assay: Ultracentrifugation (UC) plasma protein binding assay, fraction unbound in plasma (fup)
[7] = hepatocyte incubation, Rep 1-3, start conc 1000 nM
[8] = heat treated hepatocytes, Rep 1-3

Q: Which results are given for `OCC(F)(F)C(F)(F)C(F)(F)C(F)(F)C(F)(F)C(F)(F)CO` [1H,1H,8H,8H-Perfluorooctane-1,8-diol]?
A: hepatocyte CLint at 1 μM ([1]; hepatocytes, background-subtracted, read-out: Bkgd-Sub Clearance (µL/min/106 hepatocytes)): 20 µL/min/1e6 cells; hepatocyte CLint at 1 μM ([1]; hepatocytes, hepatocyte clearance, Conc 1000 nM, not background adjusted, read-out: Unadj Clint): 22.8 µL/min/1e6 cells; hepatocyte CLint at 1 μM ([1]; hepatocytes, pooled human hepatocyte suspensions, 1 μM, read-out: In Vitro Clint): 20 µL/min/1e6 cells; hepatocyte CLint at 1 μM ([1]; hepatocytes, unadjusted hepatocyte intrinsic clearance, read-out: Unadj in vitro Clint): 22.8 µL/min/1e6 cells; hepatocyte CLint at 1 μM ([1]; hepatocytes, hepatocyte time course, NS = slope not significant, read-out: Linear Regression Results, Best-Fit Values, Clearance): 22.8 µL/min/1e6 cells; half-life at 1 μM ([1]; hepatocytes, hepatocyte time course, NS = slope not significant, read-out: Linear Regression Results, Best-Fit Values, Half Life): 1.01 h; hepatocyte CLint at 1 μM ([1]; s9, Bayesian analysis median, 1 μM assay concentration (Table S9), read-out: Clint.1.Med): 5.03 µL/min/1e6 cells; Concentration (nM), Time 0 min [2, 7]: 833.88 nM and 886.538 nM and 918.72 nM; Concentration (nM), Time 15 min [2, 7]: 552.068 nM and 564.688 nM and 626.636 nM; Concentration (nM), Time 30 min [2, 7]: 572.698 nM and 772.55 nM and 675.577 nM; Concentration (nM), Time 60 min [2, 7]: 915.509 nM and 882.56 nM and 951.955 nM; Concentration (nM), Time 120 min [2, 7]: 252.926 nM and 197.823 nM and 212.459 nM; Linear Regression Results, Best-Fit Values, Slope ([2]; hepatocyte time course): -0.01141; half-life at 1 μM ([3]; buffer, no cells control, 0 vs 240 min, read-out: No Cells BkgdCl, Half Life): 8.21 h; Hep_Stab_Fail ([3]; flag for stability failure in hepatocyte clearance assay controls (1 or Fst = fail, 0 = pass)): 0; HT BkgdCl, Slope ([3]; heat treated hepatocytes control, 0 vs 240 min): -0.00103; Negative Controls, Heat Treated (HT), concentration at 0 min [3, 8]: 1090.28 nM and 973.38 nM and 645.077 nM; Negative Controls, Heat Treated (HT), concentration at 240 min [3, 8]: 595.287 nM and 737.448 nM and 742.842 nM; No Cells BkgdCl, Slope ([3]; no cells control, 0 vs 240 min): -0.001407; Negative Controls, No cells (NC), concentration at 0 min ([3]; no cells, Rep 1-3): 937.465 nM and 878.747 nM and 1163.86 nM; Negative Controls, No cells (NC), concentration at 240 min ([3]; no cells, Rep 1-3): 676.807 nM and 658.518 nM and 781.013 nM; Css ([4]; Assuming 1 mg/kg/day dose rate, BW 70 kg): 0.16 mg/L and 0.45 uM; Clhep ([4]; IVIVE, hepatocyte Clint scaled to whole-liver clearance): 17.326 L/h; AED ([4]; administered equivalent dose from LOEC and Css): 15.5263 mg/kg/day; Fub ([4]; fub=fup/(B:P), Fub set to 1 if needed): 0.1018; Css ([4]; human steady-state plasma concentration, assuming 1 mg/kg/day dosage): 0.45 µM; CLint ([4]; scaled with HPGL 110 mill cells/g, Vl 1596 g): 3512253 µL/min; LOEC (human primary cells; BioSeek lowest-observed effect concentration used for AED): 7.00 µM; LOEC (human primary cells; minimum lowest-observed effect concentration, BioSeek platform): 7 µM; fraction unbound (in vitro; Fraction Unbound (fu), Run-specific Avg, average of one UC run (run date in line above)): 0.0529; fraction unbound (in vitro; Fraction Unbound (fu), individual replicates A, B, C of the UC run named in c8): 0.0626; fraction unbound (in vitro; Mean fu, fraction unbound in human plasma, ultracentrifugation, some values based on eLOQ): 0.056; Time 1 hr (human plasma [5]; amount measured in plasma sample at 1 hr, replicates A, B, C, unit not given): 8242.79 and 6998.48 and 7495.85 and 8652.78 and 7694.03 and 8210.48; Time 5 hr (human plasma [5]; amount measured in plasma sample at 5 hr, replicates A, B, C, unit not given): 7470.56 and 8168.83 and 8821.07 and 7477.64 (2×) and 9359.65; Stability (T5hr/ T1hr), Run-specific Avg (human plasma [5]; average of one UC run (run date in line above)): 0.913; PPB_Stab_Fail (human plasma [5]; flag for stability failure in the plasma protein binding assay (1 = fail, 0 = pass)): 0; Mean Stability (human plasma [5]; mean T5hr/T1hr ratio over all replicates and runs, plasma): 0.997; Fstable.Med (human plasma [5]; median fraction stable in plasma, UC assay Level4): 0.989; Aqueous Fraction (human plasma [6]; amount measured in aqueous fraction after ultracentrifugation, replicates A, B, C, unit not given): 467.47 and 486.886 and 467.528 and 459.225 and 404.056 and 403.816; fup (human plasma [6]; human plasma, 10 μM, ultracentrifugation, 37 °C): 0.0560; Fup.Med (human plasma [6]; median fraction unbound in plasma, UC assay Level4): 0.0465; Fup.point (human plasma [6]; point estimate of fraction unbound in plasma, UC assay Level4): 0.0506

Source: paper PMC10223284, “Category-Based Toxicokinetic Evaluations of Data-Poor Per- and Polyfluoroalkyl Substances (PFAS) using Gas Chromatography Coupled with Mass Spectrometry” (Toxics, 2023)
